# Values quoted from earlier work, collected in patent US10597315B2, “Method of disinfection of drinking water using ozone and silver cations” (KAUNO TECHNOLOGIJOS UNIVERSITETAS, priority 2015, dated 2020).
# Experiments:
# [1] = World Health Organization
smiles,measurement,setting,value
[Ag+] [silver],Ingested silver absorbed in the intestine,,10%
same,Ingested silver excreted from the body via the faeces,,90%
same,Silver in drinking water tolerable without any risk to health,[1],up to 0.1 mg/kg
